Experimental data: patent US20080241943A1, “Subnanomolar Precipitator of Thiophilic Metals” (The Scripps Research Institute, priority 2004, published 2008)

Tests used:
[1] = Thiophilic metal precipitation by ligand; type: physicochemical; details: for metal salt concentration at which precipitation was visually apparent: 10% aqueous CH3CN
Protocol: (§1) General procedure for thiophilic metal precipitation. A 10 μL aliquot of a 200 mM stock of metal ion in water was incubated at room temperature with 200 μL of a 10 mM stock of ligand 3a in CH3CN. Red precipitates from 3a appeared upon increasing the amount of water in the final reaction mixture to over 20% (v/v). The formation of these red precipitates provided an ideal tool for verification of sample quality. Red precipitates from 3a were readily removed by triturating the precipitate with acetonitrile.

[2] = Thiophilic metal precipitation by ligand, panel of metal ions; type: physicochemical; details: spectroscopic analyses; did not correlate with Ksp
Protocol: as §1

[3] = Determination of the extent of metal precipitation (vapor atomic absorption of supernatant); type: physicochemical; details: after reacting 6.7±0.01 mM Hg(OAc)2 with 6.7±0.01 mM 3a
Protocol: Determination of the extent of metal precipitation. An 167 μL aliquot of a 20 mM stock of Hg(OAc)2 in water was incubated at room temperature with 333 μL of a 10 mM stock of ligand 3 in CH3CN. Precipitation occurred immediately. After 5 minutes the sample was centrifuged for 5 min at 14,000×g. The supernatant was removed and an aliquot submitted to vapor atomic absorption analysis (Galbraith Laboratories, Knoxyille, Tenn.).

[4] = Heavy metal competitions (precipitation in the presence of other metal ions); type: physicochemical; details: mixtures containing Cu^2+
Protocol: (§2) Determination of solubility products (Ksp). Weight analysis (FIG. 2A): Ksp values were determined either by weighing the amount of precipitate 4a. Scale-up was required to provide sufficient material for analysis on conventional microbalances. The following procedure was used for this analysis: a 100 μL aliquot of a 200 mM stock of metal ion in water was incubated at room temperature with 2 mL of a 10 mM stock of ligand 3a in acetonitrile. After 10 minutes the precipitate was isolated by centrifugation for 5 min at 2,000×g, washed with acetonitrile (5 ml), methanol (5 ml) and dried in vacuo. Spectrophotometric analysis (FIG. 2B): A 10 μL aliquot of a 200 mM stock of metal ion in water was added to 200 μL of a 10 mM stock of ligand 3a in acetonitrile in a spin filter (Millipore). After 10 minutes at rt, the precipitate was removed by centrifugation at 2,000×g. Spectroscopic analysis of the supernatant was performed on a conventional microarray reader (PerSeptive Biosystems CytoFluor or Perkin Elmer HST 7000 plate reader).
Heavy metal competitions. A 167 μL aliquot of a 20 mM stock of metal ion in water was incubated at room temperature with 333 μL of a 10 mM stock of ligand 3a in acetonitrile. […] The supernatant was analyzed on a PerSeptive Biosystems CytoFluor or Perkin Elmer HST 7000 plate reader using excitation at 510 nm. […]

[5] = Determination of solubility products (Ksp), reproducibility; type: physicochemical; details: concentrations 1 mM-0.1 μM, pH 3-10, temperature 0-50° C.
Protocol: as §2

[6] = Precipitation of free ligand from aqueous CH3CN; type: physicochemical; details: 10 mM 3a stock in CH3CN, room temperature
Protocol: as §1

[7] = cited from earlier work

Compound: CCCCCCCCCCc1ccc(C2(c3ccc(CCCCCCCCCC)cc3)SC(=S)c3ccccc32)cc1 [3b, 3,3-Bis(4-decylphenyl)benzo[c]thiophene-1(3H)-thione]
- induction time of precipitation ([1]; by Hg^2+): > 5 min
- induction time of precipitation ([1]; by Pb^2+): > 5 min

Compound: S=C1SC(c2ccccc2)(c2ccccc2)c2ccccc21 [3a, 3,3-Diphenylbenzo[c]thiophene-1(3H)-thione]
- rate of precipitation (order of metal ions) [2]: Hg^2+>Pb^2+>Cd^2+>(Au^3+˜Cu^2+)>(Pd^2+˜Ni^2+)>(Co^2+˜Mo^2+˜Pt^2+)
- metal salt concentration at which precipitation was visually apparent ([1]; CdCl2 added to 25 μM 3a): 50 µM
- metal salt concentration at which precipitation was visually apparent ([1]; Hg(OAc)2 added to 1 μM 3a): 2 µM
- metal salt concentration at which precipitation was visually apparent ([1]; Pb(OAc)2 added to 5 μM 3a): 10 µM
- amount of Hg^2+ left in supernatant [3]: 0.58 ± 0.03 µM
- Cu^2+ tolerated in analysis of Hg^2+, Pb^2+ and Cd^2+ [4]: 500 equivalents
- deviation of Ksp values [5]: ≤ 1%
- amount of water in the final reaction mixture at which red precipitates from 3a appeared [6]: over 20 % (v/v)

Compound: O=C(O)CN(CC(=O)O)c1ccc(-c2c3cc(F)c(=O)cc-3oc3cc(O)c(F)cc23)cc1OCCOc1cc([N+](=O)[O-])ccc1N(CC(=O)O)CC(=O)O [Fluo-5N]
- affinity to Cd^2+ relative to La^3+ ([7]; at 1 μM): O-fold
- affinity for La^3+ over Cd^2+ ([7]; at 100 μM): 2 fold
